Experimental data from patent US10829484B2, “Compounds and methods for kinase modulation, and indications therefor” (Plexxikon Inc., priority 2015, dated 2020).
Substitutions are numbered along the chain they refer to.

Tests used:
BaF3-FLT3-ITD-D835V = biological target: T1, BaF3-FLT3-ITD-D835V (Homo sapiens, UniProt P36888, INS600HVDFREYEYD/D835V, cells depend on it); assay: CTB viability assay CS0048, BaF3-FLT3-ITD-D835V; type: cell-based, murine; settings: BaF3-FLT3-ITD-D835V cells, CellTiter Blue viability, 72 hours; read-out: Cell Assay: CS0048: BaF3-FLT3-ITD-D835V CTB:IC50
T1 sequence (P36888 with tags, fused parts or gaps INS600HVDFREYEYD/D835V): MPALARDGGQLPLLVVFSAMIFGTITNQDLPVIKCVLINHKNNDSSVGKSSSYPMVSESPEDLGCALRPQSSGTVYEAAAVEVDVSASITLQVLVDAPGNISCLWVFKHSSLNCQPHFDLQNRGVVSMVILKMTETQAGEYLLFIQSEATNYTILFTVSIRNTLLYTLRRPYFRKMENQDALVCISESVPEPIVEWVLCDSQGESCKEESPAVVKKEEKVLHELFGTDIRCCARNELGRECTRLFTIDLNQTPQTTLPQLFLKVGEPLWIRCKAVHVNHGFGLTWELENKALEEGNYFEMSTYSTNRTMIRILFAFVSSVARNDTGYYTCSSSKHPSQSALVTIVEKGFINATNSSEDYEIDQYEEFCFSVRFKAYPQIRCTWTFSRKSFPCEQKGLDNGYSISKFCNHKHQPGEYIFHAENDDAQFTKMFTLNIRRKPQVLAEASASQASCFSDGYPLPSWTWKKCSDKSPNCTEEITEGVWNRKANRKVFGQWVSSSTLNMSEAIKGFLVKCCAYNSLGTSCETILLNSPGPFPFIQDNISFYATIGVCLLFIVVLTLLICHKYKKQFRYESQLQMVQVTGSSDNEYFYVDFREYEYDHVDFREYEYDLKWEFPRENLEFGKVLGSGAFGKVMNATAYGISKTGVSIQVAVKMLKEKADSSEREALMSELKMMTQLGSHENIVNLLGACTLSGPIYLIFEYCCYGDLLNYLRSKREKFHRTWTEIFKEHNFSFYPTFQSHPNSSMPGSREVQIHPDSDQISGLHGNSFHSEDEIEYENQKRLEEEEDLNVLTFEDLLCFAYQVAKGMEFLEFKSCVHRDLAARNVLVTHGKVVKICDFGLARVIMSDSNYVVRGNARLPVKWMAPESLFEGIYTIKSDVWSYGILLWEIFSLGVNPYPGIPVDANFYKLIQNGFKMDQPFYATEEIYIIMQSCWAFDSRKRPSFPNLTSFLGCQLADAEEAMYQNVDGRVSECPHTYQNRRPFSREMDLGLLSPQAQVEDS
Source text: (§1) Gene constructs containing the human FLT3 sequences FLT3-ITD, FLT3-ITD-F691L, FLT3-ITD-D835V and FLT3-D835V were synthesized by reverse translation of the human protein sequences, with codons optimized for mammalian expression. Sequence of the internal tandem duplication (ITD) was based on the MV4-11 ITD sequence. Synthetic DNA constructs were cloned into the pMSCV puro retroviral vector (Clontech) and transfected into the EcoPack2-293 packaging cell line (Clontech) to generate retroviruses that contain the different FLT3 constructs. Viruses were transduced into the IL-3-dependent, murine […] cell line, Ba/F3, and selected for puromycin resistance and IL-3 independence. All cell lines were cloned by limiting dilution and clones were used for all subsequent cell assays. Overexpression of the FLT3 mutants in the Ba/F3 cells results in constitutive phosphorylation of the exogenous FLT3 protein, which is required for IL-3 independence.
(§2) Cell lines were serum starved overnight in media containing 0.5% FBS, plated at 15,000 cells/well in 96-well white-walled tissue culture plates, and 3-fold serial dilutions of test compounds of Formula I were added for 72 hours at 37° C. CellTiter Blue (CTB, Promega) was added and incubated for an additional 3 hours at 37° C. Fluorescence was read at 560 nm excitation, 590 nm emission. Wells with CTB+media only were used for background subtraction, and the fluorescence of compound-treated cells was normalized to the fluorescence of DMSO-treated cells. IC50s were determined using Igor Pro software. All compounds are assayed in duplicate cell plates.

BaF3-FLT3-ITD-F691L = biological target: T2, BaF3-FLT3-ITD-F691L (Homo sapiens, UniProt P36888, INS600HVDFREYEYD/F691L, cells depend on it); assay: CTB viability assay CS0047, BaF3-FLT3-ITD-F691L; type: cell-based, murine; settings: BaF3-FLT3-ITD-F691L cells, CellTiter Blue viability, 72 hours; read-out: Cell Assay: CS0047:BaF3-FLT3-ITD-F691L CTB:IC50
T2 sequence (P36888 with tags, fused parts or gaps INS600HVDFREYEYD/F691L): T1 sequence (P36888 with tags, fused parts or gaps INS600HVDFREYEYD/D835V) with F701L, V845D
Source text: as §1, §2

| SMILES | GI50 (BaF3-FLT3-ITD-D835V) | GI50 (BaF3-FLT3-ITD-F691L) |
| --- | --- | --- |
| Cc1nn(C)cc1Nc1ncc(-c2ccc(CC(=O)Nc3cc(C4(C(F)(F)F)CC4)on3)c(F)c2)cc1C#N [P-156, 2-[4-[5-cyano-6-[(1,3-dimethylpyrazol-4-yl)amino]-3-pyridyl]-2-fluorophenyl]-N-[5-[1-(trifluoromethyl)cyclopropyl]isoxazol-3-yl]acetamide] | 10 to 50 nM | 10 to 50 nM |
| CC(C)c1nn(C)cc1Nc1ncc(-c2ccc(CC(=O)Nc3cc(C4(C(F)(F)F)CC4)on3)c(F)c2)cn1 [P-168, 2-[2-fluoro-4-[2-[(3-isopropyl-1-methyl-pyrazol-4-yl)amino]pyrimidin-5-yl]phenyl]-N-[5-[1-(trifluoromethyl)cyclopropyl]isoxazol-3-yl]acetamide] | 10 to 50 nM | 10 to 50 nM |
| COCCn1ncc(Nc2ncc(-c3ccc(CC(=O)Nc4cc(C5(C(F)(F)F)CC5)on4)c(F)c3)cn2)c1C1CC1 [P-204, 2-[4-[2-[[5-cyclopropyl-1-(2-methoxyethyl)pyrazol-4-yl]amino]pyrimidin-5-yl]-2-fluoro-phenyl]-N-[5-[1-(trifluoromethyl)cyclopropyl]isoxazol-3-yl]acetamide] | 10 to 50 nM | 10 to 50 nM |
| O=C(Cc1ccc(-c2cnc(Nc3cnn(CCO)c3C3CC3)nc2)cc1F)Nc1cc(C2(C(F)(F)F)CC2)on1 [P-210, 2-[4-[2-[[5-cyclopropyl-1-(2-hydroxyethyl)pyrazol-4-yl]amino]pyrimidin-5-yl]-2-fluorophenyl]-N-[5-[1-(trifluoromethyl)cyclopropyl]isoxazol-3-yl]acetamide] | 10 to 50 nM | 10 to 50 nM |
